This is an account of results in patent publication US20040214760A1, “Inhibition pf protein-phosphatases for the treatment of heart failure” (priority 2001, published 2004).

For one assay, the system named is PP1. The settings on record: heat and acid stable proteins of skeletal muscle extract (Cohen et al., 1998); cited from earlier work.
For assay [1], the target named is 32P-labelled phosphorylase a.

With inhibitor-1, the “inhibition of phosphatase (PP1) activity, dependence on phosphorylation state” value in the assay on PP1 is given as “inhibits phosphatase activity only when it has been phosphorylated by cAMP-dependent protein kinase”.

Consider “purified catalytic subunit of PP1 from rabbit skeletal muscle (enzyme)”, for which the 32P released from 32P-labelled phosphorylase a in assay [1] was found to be 30%.
